Data taken from PMC4192545, “Suramin Inhibits Hsp104 ATPase and Disaggregase Activity” (PLoS ONE, 2014).
Counter-ions that a name gives are not always drawn. Like-named read-outs stand apart in the source and are kept apart here.

Key:
Hsp104 [1] = molecular target: T1, Hsp104 (Saccharomyces cerevisiae, UniProt P31539); assay: Luciferase disaggregation/reactivation assay, Hsp104 with ATP:ATPγS; assay type: biochemical, yeast; details: for Normalized Luciferase Refolding Activity: 90 min 25°C, ATP:ATPγS 1:1, Figure 3A
T1 construct: made in house; host or cells: E. coli BL21-DE3 RIL
Protocol: Luciferase reactivation was performed as described, [37]. To assemble aggregates, firefly luciferase (50 µM) in luciferase refolding buffer (LRB, 25 mM HEPES-KOH, 7.4, 150 mM KAOc, 10 mM MgAOc, 10 mM DTT) with 6 M urea was incubated at 30°C for 20 min. Luciferase was then rapidly diluted 100-fold into LRB, divided into 100 µL aliquots, snap frozen in liquid N2, and stored at −80°C. For reactivation assays, aggregated luciferase (50 nM) was incubated with Hsp104 (1 µM hexamer), plus 2.6 mM ATPγS, 2.6 mM ATP and an ATP regeneration system (1 mM creatine phosphate, 0.25 µM creatine kinase (Roche Applied Science)) for 90 minutes at 25°C. Luciferase assay system was purchased from Promega. Luciferase activity was assessed by luminescence measured on a Safire^2 microplate reader (Tecan, Männedorf, Switzerland). The half maximal inhibitory concentration (IC50) was calculating by fitting luciferase-refolding data at different Suramin concentrations with Prism (GraphPad Software, Inc., La Jolla, CA).

Hsp104^WT = molecular target: T2, Hsp104^WT (Saccharomyces cerevisiae, UniProt P31539); assay: Manual ATPase assay, Hsp104^WT; assay type: biochemical, yeast; details: 60 min, ATP 1 mM
T2 construct: made in house; host or cells: E. coli BL21-DE3 RIL
Protocol: Wild-type or mutant Hsp104 (0.25 µM monomer) in ATPase buffer (20 mM HEPES-KOH pH 7.4, 20 mM NaCl and 10 mM MgCl2) was incubated for 60 or 10 min at 25°C in the presence of ATP (1 mM) as noted. ATPase activity was assessed by the release of inorganic phosphate determined by using a malachite green phosphate detection kit (Innova).

Hsp104 [2] = details: cited from earlier work
Hsp104 [3] = molecular target: T1, Hsp104; assay: High-throughput Hsp104 ATPase plate assay (malachite green, 384-well); assay type: biochemical, yeast; details: for inhibition at 10 µM: read-out: % Inhibition of Hsp104 ATP hydrolysis
Protocol: ATPase activity was assessed by the release of inorganic phosphate determined using a malachite green phosphate detection kit (Innova Biosciences, Cambridge, United Kingdom). Microtiter plates (384-well) were purchased from PerkinElmer (Waltham, MA). Three libraries were screened: The NIH Clinical Collection (450 small molecules), the Spectrum Collection (2,000 compounds, MicroSource, Gaylordsville, CT) and the HitFinder Collection (14,400 compounds, Maybridge).
We adapted the inorganic phosphate colorimetric assay to fit a 384-well plate format. A Ź-factor between 0.8 and 1 was calculated for the assay. A 2X Hsp104 stock solution was dispensed into each well using a Biotek microflo (Biotek Instruments, Winooski, VT). Compounds were then transferred using a Janus 96/384 Modular Dispensing Tool (PerkinElmer). Finally, a 2X ATP solution was dispensed using the Biotek microflo. Final concentrations of Hsp104 (monomer) and ATP were 0.25 µM and 1 mM respectively. Seeking to avoid the discovery of competitive inhibitors, we designed our high-throughput screen to use a 100-fold excess of ATP with respect to the test compounds (10 µM each). Final buffer conditions were 20 mM HEPES-KOH pH 7.4, 20 mM NaCl and 10 mM MgCl2. The ATPase reaction was allowed to continue for 60 min, at which time the reaction was terminated by addition of the colorimetric reagent. Absorbance was measured at 635 nm on an EnVision Xcite Multilabel plate reader (PerkinElmer). Hits were tested in duplicate. […] Ten of these were subjected to a 6-point titration (40, 13.3, 4.44, 1.45, 0.49 and 0 µM) in the absence or presence of Triton X-100, BSA, or both Triton X-100 and BSA at the specified concentrations. Heat maps were created in Excel for Mac 2011 (Microsoft Corporation) using the Conditional Formatting feature (Color Scales).
We aimed to identify small molecules capable of inhibiting Hsp104. To do so, we employed high-throughput screening using Hsp104 ATPase activity as a proxy for function. To detect changes in Hsp104 ATPase activity, we used a colorimetric assay detecting free inorganic phosphate (Pi) based on the formation of a colored complex between Pi and a dye molecule under acidic conditions, [44]. Pi is produced from the Hsp104-driven hydrolysis of ATP. The colored complex concentration, a surrogate for Pi concentration and ATPase rate, is determined by measuring the absorbance of a sample at 635 nm. We used recombinant Hsp104 purified from E. coli. An Hsp104 mutant with mutations in both NBD1 and NBD2 Walker B sequence motifs (Hsp104^DWB, carrying ATPase ablating mutations E285Q: E687Q) was used as a negative control for ATPase activity. Hsp104^WT activity results in a high A635 (high ATPase), while Hsp104^DWB activity results in a low A635 (low ATPase). We optimized the Pi colorimetric assay to fit a 384-well plate format. We selected the Hsp104 concentration (0.25 µM) on the basis of previous experience in our laboratory. The ATP concentration was selected to be in a 100-fold excess of ATP with respect to the test compounds. […] We screened 16,850 compounds from the NIH Clinical Collection as well as the Spectrum and Maybridge compound libraries. […] For instance, hexachlorophene and tannic acid inhibit Hsp104 ATPase activity by ∼80%, while Merbromin and Sennoside a inhibit by ∼20% ( Table 1 ).

[4] = 10 µM compound, Hsp104 0.25 µM monomer, ATP 1 mM, 60 min, mean ±S.D. (n = 2)

T1 sequence (P31539 whole entry): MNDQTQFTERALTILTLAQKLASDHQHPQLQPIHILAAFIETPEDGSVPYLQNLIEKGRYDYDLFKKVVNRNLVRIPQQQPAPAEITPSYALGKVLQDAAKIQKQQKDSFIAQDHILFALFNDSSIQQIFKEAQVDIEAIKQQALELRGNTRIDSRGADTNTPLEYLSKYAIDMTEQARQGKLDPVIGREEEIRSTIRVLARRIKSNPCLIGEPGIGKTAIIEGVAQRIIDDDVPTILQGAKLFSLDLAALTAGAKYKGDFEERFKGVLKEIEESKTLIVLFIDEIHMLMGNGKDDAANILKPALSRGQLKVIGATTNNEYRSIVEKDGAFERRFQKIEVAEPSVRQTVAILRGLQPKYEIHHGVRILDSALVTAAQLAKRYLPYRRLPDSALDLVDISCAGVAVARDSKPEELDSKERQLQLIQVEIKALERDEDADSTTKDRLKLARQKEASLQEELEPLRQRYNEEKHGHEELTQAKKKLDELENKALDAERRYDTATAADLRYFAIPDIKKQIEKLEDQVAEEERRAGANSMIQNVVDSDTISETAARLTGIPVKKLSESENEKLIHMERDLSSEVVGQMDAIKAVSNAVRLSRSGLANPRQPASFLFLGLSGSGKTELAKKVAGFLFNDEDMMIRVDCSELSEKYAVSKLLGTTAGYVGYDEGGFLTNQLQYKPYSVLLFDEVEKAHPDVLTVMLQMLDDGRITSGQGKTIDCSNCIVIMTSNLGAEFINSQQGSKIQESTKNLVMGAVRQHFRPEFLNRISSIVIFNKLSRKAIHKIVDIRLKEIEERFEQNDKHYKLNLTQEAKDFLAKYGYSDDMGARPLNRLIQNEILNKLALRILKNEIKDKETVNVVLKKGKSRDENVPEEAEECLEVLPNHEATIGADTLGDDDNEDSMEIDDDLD
T2 sequence (P31539 whole entry): as above

inhibition at 10 µM (Hsp104 [3]; [4]) [%]	Compound	% Inhibition of Hsp104 ATP hydrolysis (Hsp104 [3]; [4]) [%]	other results
	Cl.N=C(N)N [GdmCl, guanidinium hydrochloride]		Concentration needed to elicit the same level of inhibition as 100 µM Suramin (complete ablation of luciferase refolding) (Hsp104 [1]; ATP:ATPγS 1:1): 5 mM; Normalized Luciferase Refolding Activity (Hsp104 [1]; GdmCl 1 mM): 0.07; Normalized Luciferase Refolding Activity (Hsp104 [1]; GdmCl 5 mM): 0.01; Normalized Luciferase Refolding Activity (Hsp104 [1]; GdmCl 10 mM): 0.01; Normalized Luciferase Refolding Activity (Hsp104 [1]; GdmCl 20 mM): 0.01; Effect on luciferase reactivation activity of Hsp104 (Hsp104 [1]; all concentrations of GdmCl tested (1-20 mM)): very strongly inhibited the luciferase reactivation activity of Hsp104; Effect on Hsp104 ATPase activity, manual assay (Hsp104^WT; 30 mM (highest concentration tested)): only very mildly inhibited Hsp104 ATPase activity; Hsp104 ATPase activity remaining (Hsp104 [2]; GdmCl 100 mM): large fraction of Hsp104 ATPase activity remained; Effective concentration for inhibition of Hsp104 activity (Hsp104 [2]): effective at millimolar concentrations
	N.N.[Cl][Pt][Cl] [Cisplatin, cis-diamminedichloroplatinum (II)]	76.58±1.06	Inhibition of Hsp104 ATPase activity in the presence of both Triton X-100 and BSA (Hsp104 [3]; titration 40-0.49 µM, 60 min, Triton X-100 and BSA, heat map Figure 1A): most significantly inhibit Hsp104 ATPase activity; Effect on Hsp104 ATPase activity (Pi produced), manual assay (Hsp104^WT; varying concentrations, Figure 2A): unable to replicate the inhibitory effect of Cisplatin outside of the 384-well format
~20	O=C(O)c1cc(O)c2c(c1)[C@H]([C@H]1c3cc(C(=O)O)cc(O)c3C(=O)c3c(O[C@@H]4O[C@H](CO)[C@@H](O)[C@H](O)[C@H]4O)cccc31)c1cccc(O[C@@H]3O[C@H](CO)[C@@H](O)[C@H](O)[C@H]3O)c1C2=O [Sennoside a]	19.92±7.07	
33.3 ± 2.12	C=C1c2cccc(O)c2C(=O)C2=C(O)[C@]3(O)C(=O)C(C(N)=O)=C(O)[C@@H](N(C)C)[C@@H]3[C@@H](O)[C@H]12 [Methacycline hydrochloride]		
21.9 ± 2.53	O=C(Oc1cc(O)cc2c1C[C@@H](OC(=O)c1cc(O)c(O)c(O)c1)[C@@H](c1cc(O)c(O)c(O)c1)O2)c1cc(O)c(O)c(O)c1 [Epigallocatechin 3,5-digallate]		
	Sucralfate Sodium	25.67±2.59	
	Cc1cc2c(C(C)C)c(O)c(O)c(C=O)c2c(O)c1-c1c(C)cc2c(C(C)C)c(O)c(O)c(C=O)c2c1O [Gossypol]		inhibition at 10 µM (Hsp104 [3]): 42.3 ± 4.83%
	N.N.O=C([O-])C1(C(=O)[O-])CCC1.[Pt+2] [Carboplatin]	73.75±1.41	
	O=C([O-])c1ccccc1-c1c2cc(Br)c(=O)cc-2oc2[c]([Hg+])c([O-])c(Br)cc12.[Na+].[Na+].[OH-] [Merbromin]	21.17±3.54	
	Chlorophyllide Cu Complex Na Salt	33.79±2.18	
57.2 ± 7.19	O=C(O[C@@H]1Cc2c(O)cc(O)cc2O[C@@H]1c1cc(O)c(=O)c2c(O)c(O)cc([C@H]3Oc4cc(O)cc(O)c4C[C@H]3O)c2c1)c1cc(O)c(O)c(O)c1 [Theaflavin monogallates]		
	CC(=O)O.Cc1cc2c(C(C)C)c(O)c(O)c(C=O)c2c(O)c1-c1c(C)cc2c(C(C)C)c(O)c(O)c(C=O)c2c1O [Gossypol-acetic acid complex]	47.92±1.30	
	Tannic acid	79.79±0.29	% Inhibition of Hsp104 ATP hydrolysis (Hsp104 [3]; 10 µM compound, Hsp104 0.25 µM monomer, ATP 1 mM, 60 min, mean ±S.D. (n = 2), listed as tannic acid): ~80%
	O=C1C=C2CC3(O)COc4c(ccc(O)c4O)C3=C2C=C1O (centres unmarked) [Hematein]		inhibition at 10 µM (Hsp104 [3]): 45.7 ± 5.95%

Compound	inhibition at 10 µM (Hsp104 [3]; [4]) [%]	% Inhibition of Hsp104 ATP hydrolysis (Hsp104 [3]; [4]) [%]	other results
O=C(O)C1=CC(=C(c2ccc(O)c(C(=O)O)c2)c2ccc(O)c(C(=O)O)c2)C=CC1=O [Aurin tricarboxylic acid]	24.2 ± 1.41		
Oc1c(Cl)cc(Cl)c(Cl)c1Cc1c(O)c(Cl)cc(Cl)c1Cl [Hexachlorophene]	~80	80.21±1.00	
